From ChEMBL document CHEMBL5131537 (J Med Chem, 2022)

Tests used:
[1] = Tmax in Sprague-Dawley rat at 1 mg/kg, iv measured after 0.083 to 24 hrs by LC-MS analysis; assay type: ADME, organism-based; conditions: in vivo, time 0.083-24 hrs
[2] = Acute toxicity in 12 hr fasted male CD-1(ICR) mouse assessed as changes in body weight at 2 g/kg, IG administered as single dose measured after 14 days; conditions: in vivo, po, 2000 mg/kg, 336 h, time 14 day
[3] = Cmax in Sprague-Dawley rat at 1 mg/kg, iv measured after 0.083 to 24 hrs by LC-MS analysis; assay type: ADME, organism-based; parameters: time upper 24 hrs, dose 1 mg/kg, time lower 0.083 hrs, route iv; conditions: in vivo
[4] = AUC (0 to t) in Sprague-Dawley rat at 5 mg/kg, po measured after 0.083 to 24 hrs by LC-MS analysis; assay type: ADME, organism-based; parameters: dose 5 mg/kg, time upper 24 hrs, time lower 0.083 hrs, route po; conditions: in vivo
[5] = Tmax in Sprague-Dawley rat at 5 mg/kg, po measured after 0.083 to 24 hrs by LC-MS analysis; assay type: ADME, organism-based; conditions: in vivo, time 0.083-24 hrs
[6] = Acute toxicity in 12 hr fasted female CD-1(ICR) mouse assessed as changes in body weight at 2 g/kg, IG administered as single dose measured after 14 days; conditions: in vivo, po, 2000 mg/kg, 336 h, time 14 day
Cytochrome P450 2C19 = Cytochrome P450 2C19 (Homo sapiens, UniProt P33261); experiment: Inhibition of CYP2C19 in human liver microsomes using S-mephenytoin as substrate incubated for 15 to 45 mins in presence of NADPH
Chain of Cytochrome P450 2C19 (P33261 whole entry): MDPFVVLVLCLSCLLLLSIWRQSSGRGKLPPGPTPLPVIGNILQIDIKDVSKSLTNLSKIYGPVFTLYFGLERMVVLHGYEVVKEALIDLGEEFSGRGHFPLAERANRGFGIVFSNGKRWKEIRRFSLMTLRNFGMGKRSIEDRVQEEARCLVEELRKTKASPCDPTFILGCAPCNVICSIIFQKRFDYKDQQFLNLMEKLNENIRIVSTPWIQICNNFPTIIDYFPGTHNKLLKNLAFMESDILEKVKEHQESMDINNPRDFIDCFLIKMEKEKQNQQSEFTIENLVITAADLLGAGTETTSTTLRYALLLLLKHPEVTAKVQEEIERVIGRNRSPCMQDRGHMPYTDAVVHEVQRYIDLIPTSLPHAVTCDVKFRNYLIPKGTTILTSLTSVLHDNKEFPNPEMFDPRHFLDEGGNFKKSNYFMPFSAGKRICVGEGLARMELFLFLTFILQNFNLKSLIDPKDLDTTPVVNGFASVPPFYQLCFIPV

[7] = Acute toxicity in 12 hr fasted male CD-1(ICR) mouse assessed as pathological damage in lung at 2 g/kg, IG administered as single dose measured after 14 days by H and E staining based analysis; assay type: tissue-based; conditions: in vivo, po, 2000 mg/kg, 336 h, time 14 day
[8] = MRT (0 to infinity) in Sprague-Dawley rat at 1 mg/kg, iv measured after 0.083 to 24 hrs by LC-MS analysis; assay type: ADME, organism-based; conditions: in vivo, time 0.083-24 hrs
[9] = system: Human immunodeficiency virus 1; experiment: microbe, parasite or virus in culture; conditions: Human immunodeficiency virus 1, IIIB, MT4
Description: Antiviral activity against HIV-1 IIIB harboring reverse transcriptase Y188L mutant infected in human MT4 cells by MTT assay

Cytochrome P450 2D6 = Cytochrome P450 2D6 (Homo sapiens, UniProt P10635); experiment: Inhibition of CYP2D6 in human liver microsomes using dextromethorphan as substrate incubated for 15 to 45 mins in presence of NADPH
Chain of Cytochrome P450 2D6 (P10635 whole entry): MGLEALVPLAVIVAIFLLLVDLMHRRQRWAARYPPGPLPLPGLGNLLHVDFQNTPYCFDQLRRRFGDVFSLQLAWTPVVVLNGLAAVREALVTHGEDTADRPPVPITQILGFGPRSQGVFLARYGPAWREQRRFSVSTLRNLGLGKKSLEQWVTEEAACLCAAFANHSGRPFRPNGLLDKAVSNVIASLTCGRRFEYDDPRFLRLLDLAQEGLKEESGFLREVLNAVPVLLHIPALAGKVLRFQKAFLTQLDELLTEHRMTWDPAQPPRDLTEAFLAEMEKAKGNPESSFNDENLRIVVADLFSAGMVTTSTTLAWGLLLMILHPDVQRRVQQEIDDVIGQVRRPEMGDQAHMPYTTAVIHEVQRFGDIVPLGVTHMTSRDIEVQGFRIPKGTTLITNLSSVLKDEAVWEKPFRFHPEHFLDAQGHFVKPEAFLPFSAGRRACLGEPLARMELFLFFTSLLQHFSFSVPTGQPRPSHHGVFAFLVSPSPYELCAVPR

[10] = MRT (0 to infinity) in Sprague-Dawley rat at 5 mg/kg, po measured after 0.083 to 24 hrs by LC-MS analysis; assay type: ADME, organism-based; conditions: in vivo, time 0.083-24 hrs
[11] = Acute toxicity in 12 hr fasted female CD-1(ICR) mouse assessed as pathological damage in brain at 2 g/kg, IG administered as single dose measured after 14 days by H and E staining based analysis; assay type: tissue-based; conditions: in vivo, po, 2000 mg/kg, 336 h, time 14 day
[12] = Clearance in Sprague-Dawley rat at 1 mg/kg, iv measured after 0.083 to 24 hrs by LC-MS analysis; assay type: ADME, organism-based; conditions: in vivo, time 0.083-24 hrs
[13] = Acute toxicity in 12 hr fasted male CD-1(ICR) mouse assessed as pathological damage in kidney at 2 g/kg, IG administered as single dose measured after 14 days by H and E staining based analysis; assay type: tissue-based; conditions: in vivo, po, 2000 mg/kg, 336 h, time 14 day
[14] = Acute toxicity in 12 hr fasted male CD-1(ICR) mouse assessed as pathological damage in liver at 2 g/kg, IG administered as single dose measured after 14 days by H and E staining based analysis; assay type: tissue-based; conditions: in vivo, po, 2000 mg/kg, 336 h, time 14 day
[15] = Cmax in Sprague-Dawley rat at 5 mg/kg, po measured after 0.083 to 24 hrs by LC-MS analysis; assay type: ADME, organism-based; parameters: dose 5 mg/kg, time 0.083-24 hrs, route po; conditions: in vivo
[16] = Acute toxicity in 12 hr fasted male CD-1(ICR) mouse assessed as behavioral abnormalities at 2 g/kg, IG administered as single dose measured after 14 days; conditions: in vivo, po, 2000 mg/kg, 336 h, time 14 day

COc1cc(-c2ccc(C#N)cc2)ccc1Oc1cc(N)nc(Nc2ccc(C#N)cc2)n1
Tmax [1]: 4.8 min
Activity [2]: Non-Toxic
Cmax [3]: 329 ng/mL
AUC(0-t) [4]: 116 ng·h/mL
Tmax [5]: 0.83 h
Activity [6]: Non-Toxic
IC50 (Cytochrome P450 2C19): 4.51 µM
Activity [7]: Non-Toxic
MRT inf [8]: 1.18 h
EC50 [9]: 0.57 µM
IC50 (Cytochrome P450 2D6): > 50 µM
MRT inf [10]: 2.89 h
Activity [11]: Non-Toxic
clearance [12]: 51.6 mL/min/kg
Activity [13]: Non-Toxic
Activity [14]: Non-Toxic
Cmax [15]: 44.8 ng/mL
Activity [16]: Non-Toxic
